Reference: patent publication US8163793B2, “Proline derivatives” (Hoffman-La Roche Inc., priority 2009, dated 2012)

What was measured:
[1] = molecular target: Cathepsin S (UniProt P25774); assay: Cathepsin enzyme inhibition assay (fluorogenic peptide substrate Z-Val-Val-Arg-AMC), Cathepsin S; assay type: biochemical, human and mouse; settings: enzyme 1 nM, substrate 20 μM, pH 6.5; read-out: CatS IC50
In short: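 Human or mouse cathepsin S (1 nM) was run in 100 mM potassium phosphate pH 6.5 with 5 mM EDTA, 0.001% Triton X-100 and 5 mM DTT. The rise in AMC fluorescence from cleavage was measured, and IC50 values were calculated by standard methods and expressed in μM.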

[2] = molecular target: Cat L (UniProt P07711); assay: Cathepsin enzyme inhibition assay (fluorogenic peptide substrate Z-Val-Val-Arg-AMC), Cathepsin L; assay type: biochemical, human and mouse; settings: for IC50: enzyme 1 nM, substrate 20 μM, pH 6.5, read-out: CatL IC50
In short: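 Cathepsin L at 1 nM was mixed with compound, then started with 20 μM Z-Val-Val-Arg-AMC in pH 6.5 potassium phosphate with EDTA, Triton X-100 and 5 mM DTT. AMC fluorescence (ex 360/em 465 nm) was followed over 20 min. IC50 is given in μM.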

Structure (SMILES)	IC50 [1] [nM]	IC50 [2] [nM]	CatL, % @25 uM ([2]; @25 uM compound) [% @25 uM]
CS(=O)(=O)[C@@H]1C[C@@H](C(=O)NC2(C#N)CC2)N(C(=O)C2(c3ccc(Cl)cc3)CC2)C1 [Example 409, (2S,4R)-1-[1-(4-Chloro-phenyl)-cyclopropanecarbonyl]-4-methanesulfonyl-pyrrolidine-2-carboxylic acid (1-cyano-cyclopropyl)-amide]	2530	≥ 25000	–
Cc1ccc(S(=O)(=O)[C@@H]2C[C@@H](C(=O)NC3(C#N)CC3)N(C(=O)OC(C)(C)C)C2)c(C)c1 [Example 39, (2S,4R)-2-(1-Cyano-cyclopropylcarbamoyl)-4-(2,4-dimethyl-benzenesulfonyl)-pyrrolidine-1-carboxylic acid tert-butyl ester]	2.2	50200	–
CC1(C(=O)N2C[C@H](S(=O)(=O)c3ccc(-c4ccc(F)cc4F)cc3C(F)(F)F)C[C@H]2C(=O)NC2(C#N)CC2)CC1 [Example 259, (2S,4R)-4-(2′,4′-Difluoro-3-trifluoromethyl-biphenyl-4-sulfonyl)-1-(1-methyl-cyclopropanecarbonyl)-pyrrolidine-2-carboxylic acid (1-cyano-cyclopropyl)-amide]	0.19	79500	–
COC(=O)N1C[C@H](S(=O)(=O)c2ccccc2Cl)C[C@H]1C(=O)NC1(C#N)CC1 [Example 95, (2S,4R)-4-(2-Chloro-benzenesulfonyl)-2-(1-cyano-cyclopropylcarbamoyl)-pyrrolidine-1-carboxylic acid methyl ester]	7.6	≥ 25000	–
Cc1cc(N2C[C@H](S(=O)(=O)c3ccccc3Cl)C[C@H]2C(=O)NC2(C#N)CC2)n(Cc2ccc(Cl)cc2)n1 [Example 418, (2S,4R)-4-(2-Chloro-benzenesulfonyl)-1-[2-(4-chloro-benzyl)-5-methyl-2H-pyrazol-3-yl]-pyrrolidine-2-carboxylic acid (1-cyano-cyclopropyl)-amide]	4	1620	–
N#CC1(NC(=O)[C@@H]2C[C@@H](S(=O)(=O)c3ccc(OCC(F)(F)F)cc3Cl)CN2C(=O)C2(c3cccc4ccccc34)CC2)CC1 [Example 347, (2S,4R)-4-[2-Chloro-4-(2,2,2-trifluoro-ethoxy)-benzenesulfonyl]-1-(1-naphthalen-1-yl-cyclopropanecarbonyl)-pyrrolidine-2-carboxylic acid (1-cyano-cyclopropyl)-amide]	0.855	60	–
N#CC1(NC(=O)[C@@H]2C[C@@H](S(=O)(=O)c3ccc(F)cc3F)CN2C(=O)C2(c3ccc(Cl)cc3)CC2)CC1 [Example 235, (2S,4R)-1-[1-(4-Chloro-phenyl)-cyclopropanecarbonyl]-4-(2,4-difluoro-benzenesulfonyl)-pyrrolidine-2-carboxylic acid (1-cyano-cyclopropyl)-amide]	0.95	550	–
CCN1C[C@H](S(=O)(=O)c2ccccc2Cl)C[C@H]1C(=O)NC1(C#N)CC1 [Example 83, (2S,4R)-4-(2-Chloro-benzenesulfonyl)-1-ethyl-pyrrolidine-2-carboxylic acid (1-cyano-cyclopropyl)-amide]	30.5	62100	–
Cc1cc(N2C[C@H](S(=O)(=O)CC3CC3)C[C@H]2C(=O)NC2(C#N)CC2)n(-c2ccc(C(F)(F)F)cc2)n1 [Example 469, (2S,4R)-4-Cyclopropylmethanesulfonyl-1-[5-methyl-2-(4-trifluoromethyl-phenyl)-2H-pyrazol-3-yl]-pyrrolidine-2-carboxylic acid (1-cyano-cyclopropyl)-amide]	840	–	97
Cc1cc(N2C[C@H](S(=O)(=O)c3ccccc3C(F)(F)F)C[C@H]2C(=O)NC2(C#N)CC2)n(-c2nccs2)n1 [Example 234, (2S,4R)-1-(5-Methyl-2-thiazol-2-yl-2H-pyrazol-3-yl)-4-(2-trifluoromethyl-benzenesulfonyl)-pyrrolidine-2-carboxylic acid (1-cyano-cyclopropyl)-amide]	1.57	≥ 25000	–
